{"source": "patent US11229608B2", "about": "(priority 2019, dated 2022)", "tested_on": "ornamental vinca (vincire) plants", "experiment": "Phytotoxicity assessment on vinca plants after foliar application", "assay_type": "in vivo", "set-up": "key to Phytotoxicity rating: −: non-phytotoxic; +: minimal phytotoxic; ++: moderate phytotoxic; +++: heavy phytotoxic", "details": "72 hours; for Phytotoxicity rating: visual", "procedure": "Ornamental vinca plants are susceptible to metal phytotoxicity such as Cu and used as industry standard. 3 plants were foliar sprayed with each treatments and controls at three different rates, 300 ppm, 600 ppm and 1,000 ppm. Test solutions were foliar applied using hand-operated pump mist sprayer till run off. Afterwards, plants were placed in plant growth chamber (Panasonic MLR-325H-PA) programmed to simulate summer conditions (maximum temperature set at 31° C.). Visual observations were conducted after 72 hours application to assess the overall plant health and phytotoxicity rating.\nThe assessment was done visually based on size and number of burns on plants after 72 hours of foliar application. Vinca (vincire) plant phytotoxicity rating on a scale of “−” non-phytotoxic, “+” minimal phytotoxic, “++” moderate phytotoxic, and (+++) heavy phytotoxic.", "note": "“Also recorded” adds a separate entry of the source.", "data": [{"smiles": "O=[N+]([O-])[O-].O=[N+]([O-])[O-].[Cu+2]", "note": "[Copper nitrate]", "values": [{"measurement": "phytotoxicity (in words)", "setting": "1,000 μg/ml (ppm)", "result": "severely phytotoxic"}, {"measurement": "Phytotoxicity rating", "setting": "metal concentration 1000 μg/ml", "result": "+++"}]}, {"smiles": "O=[N+]([O-])[O-].O=[N+]([O-])[O-].[Zn+2]", "note": "[Zinc nitrate]", "values": [{"measurement": "phytotoxicity (in words)", "setting": "300 μg/ml", "result": "non-phytotoxic"}, {"measurement": "phytotoxicity (in words)", "setting": "600 μg/ml", "result": "moderately phytotoxic; also recorded: minimally phytotoxic"}, {"measurement": "phytotoxicity (in words)", "setting": "1,000 μg/ml (ppm)", "result": "moderately phytotoxic"}, {"measurement": "Phytotoxicity rating", "setting": "metal concentration 300 μg/ml", "result": "−"}, {"measurement": "Phytotoxicity rating", "setting": "metal concentration 600 μg/ml", "result": "+"}, {"measurement": "Phytotoxicity rating", "setting": "metal concentration 1000 μg/ml", "result": "++"}]}]}
